Experimental data as given in patent EP4722219A1 (Gan & Lee Pharmaceuticals Co., Ltd., priority 2023, dated 2024).

What was measured:
Assay type in all cases: cell-based
T-47D cells = experiment: Inhibition of cell proliferation in T-47D cells (CCK-8); conditions: 6 days treatment, CCK-8 cell viability
In short: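 T-47D cells (3,000/well) in RPMI-1640 with 10% FBS were exposed to a concentration range of PROTAC compounds for 6 days at 37 °C, 5% CO2. Viability read by CCK-8; IC50 fitted from inhibition rate.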

ERα [1] = biological target: T1, ERα (Homo sapiens, UniProt P03372); experiment: ERα degradation in T-47D cells (Western blot); conditions: 4 hours
T1 sequence (P03372 1-595): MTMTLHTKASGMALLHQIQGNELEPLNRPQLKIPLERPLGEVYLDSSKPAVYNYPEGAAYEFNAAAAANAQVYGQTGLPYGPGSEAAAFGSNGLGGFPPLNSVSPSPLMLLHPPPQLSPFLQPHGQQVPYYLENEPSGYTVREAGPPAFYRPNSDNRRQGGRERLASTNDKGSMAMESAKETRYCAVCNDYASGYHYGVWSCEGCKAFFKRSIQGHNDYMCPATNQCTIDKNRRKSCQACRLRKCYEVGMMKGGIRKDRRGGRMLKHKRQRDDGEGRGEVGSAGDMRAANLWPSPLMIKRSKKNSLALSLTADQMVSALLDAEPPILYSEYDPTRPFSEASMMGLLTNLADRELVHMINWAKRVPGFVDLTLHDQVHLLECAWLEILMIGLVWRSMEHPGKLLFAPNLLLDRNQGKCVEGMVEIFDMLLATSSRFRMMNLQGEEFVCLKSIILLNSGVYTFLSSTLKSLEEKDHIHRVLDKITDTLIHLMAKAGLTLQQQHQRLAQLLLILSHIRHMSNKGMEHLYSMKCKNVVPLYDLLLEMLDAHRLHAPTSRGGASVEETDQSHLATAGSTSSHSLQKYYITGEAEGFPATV
In short: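 T-47D cells at 3×10^5 cells/well were exposed to compound (final 0.15-1000 nM, DMSO) for 4 hours at 37°C and then lysed in RIPA. ERα was measured by Western blot (20 µg protein) with infrared imaging. The degradation rate was calculated from ERα/internal-reference grayscale ratios relative to control.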

ERα [2] = biological target: T1, ERα; experiment: ERα degradation in MCF-7 cells (Western blot); parameters: host or cells: MCF-7; conditions: 4 hours
In short: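 MCF-7 cells treated 4 h at 37 °C with compound at 0.15–1000 nM final. ERα in lysates measured by Western blot (20 µg protein), normalized to an internal reference protein; degradation rate calculated against control.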

MCF-7 cells = experiment: Inhibition of cell proliferation in MCF-7 cells (CCK-8); conditions: MCF-7 cell proliferation, 6 days treatment
In short: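 MCF-7 cells, 800 per well in DMEM plus 10% FBS, exposed to graded PROTAC concentrations for 6 days at 37 °C, 5% CO2. Viability by CCK-8; IC50 fitted from inhibition rates.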

Row | Structure (SMILES) | IC50 (T-47D cells) | Degradation rate of ERα in T-47D cells (%) (ERα [1]; 1nM) | Degradation rate of ERα in T-47D cells (%) (ERα [1]; 10nM) | Degradation rate of ERα in MCF-7 cells (%) (ERα [2]; 1nM) | Degradation rate of ERα in MCF-7 cells (%) (ERα [2]; 10nM) | IC50 (MCF-7 cells) | IC50 (T-47D cells; Homo sapiens, T47D, 144 h) | IC50 (MCF-7 cells; Homo sapiens, MCF7, 144 h)
1 | COc1cc2c(cc1C(=O)N[C@H]1CCC(=O)NC1=O)N(C)C[C@H]1CN(CC3CCC(OC4CCN(c5ccc([C@@H]6c7ccc(O)cc7CC[C@@H]6c6ccccc6)cc5)CC4)CC3)CCN21 (stereo partly drawn) [ER-P-49, (R)-N-((S)-2,6-dioxopiperidin-3-yl)-3-(((1S,4S)-4-((1-(4-((1R,2S)-6-hydroxy-2-phenyl-1,2,3,4-tetrahydronaphthalen-1-yl)phenyl)piperidin-4-yl)oxy)cyclohexyl)methyl)-9-methoxy-6-methyl-2,3,4,4a,5,6-hexahydro-1H-pyrazino[1,2-a]quinoxaline-8-carboxamide] | 0.00117 µM | -11% | 30% | -12% | 23% | 3.73 µM |  | 
2 | O=C1CC[C@H](NC(=O)c2ccc3c(c2F)OCC32CCN(C3CC4(CCN(c5ccc([C@@H]6c7ccc(O)cc7CC[C@@H]6c6ccccc6)cc5)CC4)C3)CC2)C(=O)N1 [ER-P-37, N-((S)-2,6-dioxopiperidin-3-yl)-7-fluoro-1'-(7-(4-((1R,2S)-6-hydroxy-2-phenyl-1,2,3,4-tetrahydronaphthalen-1-yl)phenyl)-7-azaspiro[3.5]nonan-2-yl)-2H-spiro[benzofuran-3,4'-piperidine]-6-carboxamide] |  | 6% | 4% | -6% | -9% |  | 0.0189 µM | 1.41 µM
3 | O=C1CCC(N2Cc3c(ccc4c3OCC43CCC4(CC3)CN(C3CCC5(CC3)CN(c3ccc([C@@H]6c7ccc(O)cc7CC[C@@H]6c6ccccc6)cc3)C5)C4)C2=O)C(=O)N1 (stereo partly drawn) [ER-P-10, 3-(1-(2-(4-((1R,2S)-6-hydroxy-2-phenyl-1,2,3,4-tetrahydronaphthalen-1-yl)phenyl)-2-azaspiro[3.5]nonan-7-yl)-6'-oxo-6',8'-dihydro-2'H,7'H-dipyrazole[azetidine-3,1'-cyclohexane-4',3"-furo[2,3-e]isoindol]-7'-yl)piperidine-2,6-dione] |  | 51% | 77% | 24% | 57% |  | 0.00163 µM | 0.00853 µM
4 | O=C1CC[C@H](NC(=O)c2ccc3c(c2)OCC[C@H]2CN(CC4CCC(OC5CCN(c6ccc([C@@H]7c8ccc(O)cc8CC[C@@H]7c7ccccc7)cc6)CC5)CC4)CCN32)C(=O)N1 (stereo partly drawn) [ER-P-45, (S)-N-((S)-2,6-dioxopiperidin-3-yl)-3-((4-((1-(4-((1R,2S)-6-hydroxy-2-phenyl-1,2,3,4-tetrahydronaphthalen-1-yl)phenyl)piperidin-4-yl)oxy)cyclohexyl)methyl)-2,3,4,4a,5,6-hexahydro-1H-benzo[b]pyrazino[1,2-d][1,4]oxazepine-9-carboxamide] | 0.00148 µM | -5% | -3% | -15% | -24% | 1.63 µM |  | 
5 | Cn1c(=O)n(C2CCC(=O)NC2=O)c2ccc3c(c21)OCC31CCN(C2CC3(CCN(c4ccc([C@@H]5c6ccc(O)cc6CC[C@@H]5c5ccccc5)cc4)CC3)C2)CC1 (stereo partly drawn) [ER-P-17, 3-(1'-(7-(4-((1R,2S)-6-hydroxy-2-phenyl-1,2,3,4-tetrahydronaphthalen-1-yl)phenyl)-7-azaspiro[3.5]nonan-2-yl)-1-methyl-2-oxo-1,2-dihydro-3H,7H-spiro[benzofuro[6,7-d]imidazole-6,4'-piperidin]-3-yl)piperidine-2,6-dione] | 0.0209 µM | 22% | 30% | 37% | 33% | 4.56 µM |  | 
6 | O=C1CCC(Nc2ccc3c(c2)COC[C@H]2CN(C[C@H]4CC[C@@H](OC5CCN(c6ccc([C@@H]7c8ccc(O)cc8CC[C@@H]7c7ccccc7)cc6)CC5)CC4)CCN32)C(=O)N1 (stereo partly drawn) [ER-P-34, 3-(((R)-3-(((1S,4S)-4-((1-(4-((1R,2S)-6-hydroxy-2-phenyl-1,2,3,4-tetrahydronaphthalen-1-yl)phenyl)piperidin-4-yl)oxy)cyclohexyl)methyl)-1,2,3,4,4a,5-hexahydro-7H-benzo[e]pyrazino[2,1-c][1,4]oxazepin-9-yl)amino)piperidine-2,6-dione] |  | 15% | 24% | 5% | 17% |  | 0.0269 µM | 2.12 µM
7 | O=C1CCC(N2Cc3c(ccc4c3OCC43CCC4(CCN(C5CCC6(CC5)CCN(c5ccc([C@@H]7c8ccc(O)cc8CC[C@@H]7c7ccccc7)cc5)CC6)CC4)CC3)C2=O)C(=O)N1 (stereo partly drawn) [ER-P-57] |  | 12% | 68% | 3% | 62% |  | 0.00319 µM | 0.0127 µM
8 | C[C@@H]1Cc2cc(O)ccc2C(c2c(F)cc(N3CCC4(CC3)CC(N3CC5(CCC6(CC5)COc5c6ccc6c5CN(C5CCC(=O)NC5=O)C6=O)C3)C4)cc2F)N1CC(F)F (stereo partly drawn) [ER-P-28, 3-(1-(7-(4-((3R)-2-(2,2-difluoroethyl)-6-hydroxy-3-methyl-1,2,3,4-tetrahydroisoquinolin-1-yl)-3,5-difluorophenyl)-7-azaspiro[3.5]nonan-2-yl)-6"-oxo-6",8"-dihydro-2"H,7"H-dispiro[azetidine-3,1'-cyclohexane-4',3"-furo[2,3-e]isoindol]-7"-yl)piperidine-2,6-dione] |  | 41% | 59% | 38% | 63% |  | 0.00156 µM | < 0.000256 µM
9 | O=C1CCC(Nc2ccc3c(c2)OC2(CC3)CN(C[C@H]3CC[C@@H](OC4CCN(c5ccc([C@@H]6c7ccc(O)cc7CC[C@@H]6c6ccccc6)cc5)CC4)CC3)C2)C(=O)N1 (stereo partly drawn) [ER-P-33, 3-((1-(((1S,4s)-4-((1-(4-((1R,2S)-6-hydroxy-2-phenyl-1,2,3,4-tetrahydronaphthalen-1-yl)phenyl)piperidin-4-yl)oxy)cyclohexyl)methyl)spiro[azetidine-3,2'-chroman]-7'-yl)amino)piperidine-2,6-dione] |  | -16% | 32% | -5% | -9% |  | 0.0155 µM | 2.33 µM
10 | Cn1c(=O)n(C2CCC(=O)NC2=O)c2cc3c(cc21)C1(CCN(C2CCN(C(=O)C4CCN(c5ccc([C@@H]6c7ccc(O)cc7CC[C@@H]6c6ccccc6)cc5)CC4)CC2)CC1)CO3 (stereo partly drawn) [ER-P-14, 3-(1'-(1-(1-(4-((1R,2S)-6-hydroxy-2-phenyl-1,2,3,4-tetrahydronaphthalen-1-yl)phenyl)piperidine-4-carbonyl)piperidin-4-yl)-1-methyl-2-oxo-1,2-dihydro-3H,6H-spiro[benzofuro[5,6-d]imidazole-7,4'-piperidin]-3-yl)piperidine-2,6-dione] |  | 64% | 61% | 69% | 63% |  | 0.00081 µM | 0.0346 µM
